# Reference: ChEMBL document CHEMBL1255452, “Skin concentrations and pharmacokinetics of posaconazole after oral administration” (Antimicrob Agents Chemother, 2010)
# Assays:
# [1] = T>MIC90 in fungus infected patient skin at 400 mg, po bid after 8 days; type: functional
# [2] = Tmax in high fat fed healthy human skin at 400 mg, po bid after 8 days; type: ADME, organism-based, Zone of skin
# [3] = Cmax in high fat fed healthy human skin at 400 mg, po bid after 8 days; type: ADME, organism-based, Zone of skin; parameters: dose 400 mg, route oral
# [4] = Tmax in high fat fed healthy human plasma at 400 mg, po bid after 1 day; type: ADME, organism-based
# [5] = tested on: Zone of skin; assay: AUC (0 to 24 hrs) in high fat fed healthy human skin measured per gram of tissue at 400 mg, po bid after 1 day; type: ADME, organism-based; parameters: dose 400 mg, time < 24 hr, route oral; conditions: in vivo
# [6] = T>MIC90 in fungus infected patient skin at 400 mg, po bid after 1 day; type: functional
# [7] = Cmax in high fat fed healthy human plasma at 400 mg, po bid after 1 day; type: ADME, organism-based; parameters: dose 400 mg, route oral
# [8] = Cmax in high fat fed healthy human skin at 400 mg, po bid after 1 day; type: ADME, organism-based, Zone of skin; parameters: dose 400 mg, route oral
# [9] = tested on: Homo sapiens; assay: Toxicity in healthy human assessed as treatment related treatment-emergent adverse events at 400 mg, po bid after 8 days; type: organism-based; conditions: in vivo, 192 h
# [10] = T>MIC90 in fungus infected patient plasma at 400 mg, po bid after 1 day; type: functional
# [11] = AUC (0 to 12 hrs) in high fat fed healthy human plasma measured per ml of plasma at 400 mg, po bid after 1 day; type: ADME, organism-based; parameters: dose 400 mg, time < 12 hr, route oral
# [12] = AUC (0 to 12 hrs) in high fat fed healthy human plasma measured per ml of plasma at 400 mg, po bid after 8 days; type: ADME, organism-based; parameters: dose 400 mg, time < 12 hr, route oral
# [13] = AUC (0 to 24 hrs) in high fat fed healthy human plasma measured per ml of plasma at 400 mg, po bid after 1 day; type: ADME, organism-based; parameters: time < 24 hr, dose 400 mg, route oral
# [14] = Tmax in high fat fed healthy human skin at 400 mg, po bid after 1 day; type: ADME, organism-based, Zone of skin
# [15] = T>MIC90 in fungus infected patient plasma at 400 mg, po bid after 8 days; type: functional
# [16] = Ratio of AUC in skin to plasma in healthy human at 400 mg, po bid after 8 days; type: ADME, organism-based, Skin of body; conditions: skin and plasma
# [17] = tested on: Homo sapiens; assay: Toxicity in healthy human assessed as treatment-emergent adverse events at 400 mg, po bid after 8 days; type: organism-based; conditions: in vivo, 192 h
# [18] = Cmax in high fat fed healthy human plasma at 400 mg, po bid after 8 days; type: ADME, organism-based; parameters: dose 400 mg, route oral
# [19] = tested on: Zone of skin; assay: AUC (0 to 12 hrs) in high fat fed healthy human skin measured per gram of tissue at 400 mg, po bid after 8 days; type: ADME, organism-based; parameters: time < 12 hr, dose 400 mg, route oral; conditions: in vivo
# [20] = tested on: Zone of skin; assay: AUC (0 to 12 hrs) in high fat fed healthy human skin measured per gram of tissue at 400 mg, po bid after 1 day; type: ADME, organism-based; parameters: dose 400 mg, time < 12 hr, route oral; conditions: in vivo
# [21] = tested on: Zone of skin; assay: AUC (0 to 24 hrs) in high fat fed healthy human skin measured per gram of tissue at 400 mg, po bid after 8 days; type: ADME, organism-based; parameters: dose 400 mg, time < 24 hr, route oral; conditions: in vivo
# [22] = AUC (0 to 24 hrs) in high fat fed healthy human plasma measured per ml of plasma at 400 mg, po bid after 8 days; type: ADME, organism-based; parameters: time < 24 hr, dose 400 mg, route oral
structure (smiles),measurement,setting,value
CC[C@@H]([C@H](C)O)n1ncn(-c2ccc(N3CCN(c4ccc(OC[C@@H]5CO[C@@](Cn6cncn6)(c6ccc(F)cc6F)C5)cc4)CC3)cc2)c1=O [POSACONAZOLE],T>MIC90,[1],12 h
same,Tmax,[2],3 h
same,Cmax,[3],2610 ng/g
same,Tmax,[4],8 h
same,AUC,[5],3520 ng·h/g
same,T>MIC90,[6],2.24 h
same,Cmax,[7],453 ng/mL
same,Cmax,[8],328 ng/g
same,Activity,[9],37%
same,T>MIC90,[10],8.13 h
same,AUC at 12 h,[11],3630 ng·h/mL
same,AUC at 12 h,[12],18600 ng·h/mL
same,AUC at 24 h,[13],7260 ng·h/mL
same,Tmax,[14],12 h
same,T>MIC90,[15],12 h
same,Kp at 192 h,[16],1.26
same,Activity,[17],57%
same,Cmax,[18],1740 ng/mL
same,AUC,[19],23400 ng·h/g
same,AUC,[20],1760 ng·h/g
same,AUC,[21],46800 ng·h/g
same,AUC at 24 h,[22],37200 ng·h/mL
